Reference: the NIST ThermoML archive (doi:10.1007/s10765-006-0100-z)

Key:
[1] = 101 kPa, Liquid; for mass density: Vibrating tube method
[2] = xn = mol fraction of the nth substance listed; settings: 101 kPa, Liquid; for mass density: Vibrating tube method

CC(C)CCl [1-chloro-2-methylpropane]
[1]
Settings | kinematic viscosity [m2/s] | mass density [kg/m3]
298.15 K | 4.93e-07 | 871.13
313.15 K | 4.29e-07 | 853.51

CC(C)CCl [1-chloro-2-methylpropane] + C1CCOCC1
[2]
Settings | kinematic viscosity [m2/s] | mass density [kg/m3]
298.15 K, x2 = 0 | 4.93e-07 | 871.13
298.15 K, x2 = 0.048 | – | 871.69
298.15 K, x2 = 0.054 | 5.06e-07 | –
298.15 K, x2 = 0.1069 | 5.19e-07 | –
298.15 K, x2 = 0.1084 | – | 872.39
298.15 K, x2 = 0.2033 | 5.46e-07 | –
298.15 K, x2 = 0.212 | – | 873.53
298.15 K, x2 = 0.29 | – | 874.38
298.15 K, x2 = 0.311 | 5.78e-07 | –
298.15 K, x2 = 0.3951 | – | 875.37
298.15 K, x2 = 0.4126 | 6.11e-07 | –
298.15 K, x2 = 0.504 | 6.45e-07 | –
298.15 K, x2 = 0.5062 | – | 876.3
298.15 K, x2 = 0.595 | 6.82e-07 | –
298.15 K, x2 = 0.6273 | – | 877.23
298.15 K, x2 = 0.6897 | – | 877.63
298.15 K, x2 = 0.6954 | 7.27e-07 | –
298.15 K, x2 = 0.8028 | 7.83e-07 | –
298.15 K, x2 = 0.8111 | – | 878.26
298.15 K, x2 = 0.9066 | 8.46e-07 | –
298.15 K, x2 = 0.9088 | – | 878.68
298.15 K, x2 = 0.952 | – | 878.79
298.15 K, x2 = 0.9578 | 8.8e-07 | –
313.15 K, x2 = 0 | 4.29e-07 | 853.51
313.15 K, x2 = 0.0432 | – | 854.17
313.15 K, x2 = 0.054 | 4.4e-07 | –
313.15 K, x2 = 0.0934 | – | 854.93
313.15 K, x2 = 0.1069 | 4.51e-07 | –
313.15 K, x2 = 0.1923 | – | 856.35
313.15 K, x2 = 0.2033 | 4.72e-07 | –
313.15 K, x2 = 0.3025 | – | 857.83
313.15 K, x2 = 0.311 | 4.97e-07 | –
313.15 K, x2 = 0.406 | – | 859.08
313.15 K, x2 = 0.4126 | 5.23e-07 | –
313.15 K, x2 = 0.5018 | – | 860.14
313.15 K, x2 = 0.504 | 5.5e-07 | –
313.15 K, x2 = 0.595 | 5.8e-07 | –
313.15 K, x2 = 0.6079 | – | 861.19
313.15 K, x2 = 0.6954 | 6.16e-07 | –
313.15 K, x2 = 0.7238 | – | 862.24
313.15 K, x2 = 0.7895 | – | 862.78
313.15 K, x2 = 0.8028 | 6.6e-07 | –
313.15 K, x2 = 0.8874 | – | 863.42
313.15 K, x2 = 0.9066 | 7.07e-07 | –
313.15 K, x2 = 0.9463 | – | 863.68
313.15 K, x2 = 0.9578 | 7.33e-07 | –

CCCCCl [1-chlorobutane]
[1]
Settings | kinematic viscosity [m2/s] | mass density [kg/m3]
298.15 K | 4.78e-07 | 880.69
313.15 K | 4.21e-07 | 863.82

CCCCCl [1-chlorobutane] + C1CCOCC1
[2]
Settings | kinematic viscosity [m2/s] | mass density [kg/m3]
298.15 K, x2 = 0 | 4.78e-07 | 880.69
298.15 K, x2 = 0.0243 | 4.84e-07 | –
298.15 K, x2 = 0.0521 | – | 880.67
298.15 K, x2 = 0.1006 | – | 880.66
298.15 K, x2 = 0.1039 | 5.02e-07 | –
298.15 K, x2 = 0.1949 | – | 880.62
298.15 K, x2 = 0.2058 | 5.29e-07 | –
298.15 K, x2 = 0.2549 | – | 880.59
298.15 K, x2 = 0.307 | 5.59e-07 | –
298.15 K, x2 = 0.3774 | – | 880.48
298.15 K, x2 = 0.3984 | 5.89e-07 | –
298.15 K, x2 = 0.5035 | – | 880.26
298.15 K, x2 = 0.5077 | 6.3e-07 | –
298.15 K, x2 = 0.5948 | – | 880.06
298.15 K, x2 = 0.6038 | 6.69e-07 | –
298.15 K, x2 = 0.661 | – | 879.87
298.15 K, x2 = 0.7064 | 7.18e-07 | –
298.15 K, x2 = 0.7893 | – | 879.49
298.15 K, x2 = 0.7994 | 7.68e-07 | –
298.15 K, x2 = 0.9058 | 8.37e-07 | –
298.15 K, x2 = 0.9203 | – | 879.07
298.15 K, x2 = 0.9498 | 8.7e-07 | –
298.15 K, x2 = 0.9666 | – | 878.91
313.15 K, x2 = 0 | 4.21e-07 | 863.82
313.15 K, x2 = 0.0243 | 4.28e-07 | –
313.15 K, x2 = 0.0348 | – | 863.98
313.15 K, x2 = 0.0899 | – | 864.19
313.15 K, x2 = 0.1039 | 4.42e-07 | –
313.15 K, x2 = 0.1717 | – | 864.39
313.15 K, x2 = 0.2058 | 4.63e-07 | –
313.15 K, x2 = 0.2933 | – | 864.54
313.15 K, x2 = 0.307 | 4.86e-07 | –
313.15 K, x2 = 0.3984 | 5.09e-07 | –
313.15 K, x2 = 0.413 | – | 864.6
313.15 K, x2 = 0.4926 | – | 864.61
313.15 K, x2 = 0.5077 | 5.4e-07 | –
313.15 K, x2 = 0.6026 | – | 864.59
313.15 K, x2 = 0.6038 | 5.72e-07 | –
313.15 K, x2 = 0.7064 | 6.1e-07 | –
313.15 K, x2 = 0.7085 | – | 864.52
313.15 K, x2 = 0.7994 | 6.49e-07 | –
313.15 K, x2 = 0.8006 | – | 864.45
313.15 K, x2 = 0.899 | – | 864.22
313.15 K, x2 = 0.9058 | 7.01e-07 | –
313.15 K, x2 = 0.9498 | 7.25e-07 | –
313.15 K, x2 = 0.9724 | – | 863.88

CC(C)(C)Cl [2-chloro-2-methylpropane]
[1]
Settings | kinematic viscosity [m2/s] | mass density [kg/m3]
298.15 K | 5.68e-07 | 836.45
313.15 K | 4.77e-07 | 818.31
